Values after ≈ are worked out from the molar mass of the structure shown.
How the values were obtained:
[1] = test system: Piricularia oryzae; experiment: whole plant or invertebrate; assay type: in vivo; details: Pyricularia oryzae, read-out: % control RB
[2] = test system: Ps.ae; experiment: Minimum Inhibitory Concentration Test, alternate (Table 4), Ps.ae; assay type: cell-based, Pseudomonas aerugenosa; details: Pseudomonas, TSB, 72 hours
[3] = test system: S.a; experiment: Minimum Inhibitory Concentration Test, alternate (Table 4), S.a; assay type: cell-based, Staphylococcus aureus; details: Staphylococcus aureus, TSB, 72 hours
Description: (§1) A 125 μl aliquot of 10,000 ppm test compound in acetone was added to 4.88 ml of TSB to provide a 250 ppm solution. From this solution, 100 μL was transferred to the first row of two microtiter plate columns. Both replicates and five additional compounds were all serially diluted 1:1 to a final concentration of 0.8 ppm in TSB.
(§2) Inoculation was accomplished by diluting a 24 hr Ps fl culture, four mls per 36 mls of phosphate buffer solution. A Dynatech autoinoculator was used to transfer 1.5 μl of this cell suspension to the microtiter plates. The plates were incubated at 30° C. for 3 days before the lowest concentration at which no growth occurs was recorded in the database. The SOK data and MIC test data on Ps.fl, Ps.ae, E.c, and S.a. bacteria and Candida albicans (C.alb), A.n and A.p fungi are listed in Table 4.

[4] = test system: Pellicularia filamentosa (f. sp. sasiki); experiment: whole plant or invertebrate; assay type: in vivo; details: 120 h; read-out: % control RSB
[5] = test system: Candida albicans (C.alb); experiment: Minimum Inhibitory Concentration Test, alternate (Table 4), C.alb; assay type: cell-based; details: Candida albicans, TSB, 72 hours
Description: as §1, §2

[6] = test system: Puccinia recondita (f. sp. tritici Races PKB and PLD); experiment: whole plant or invertebrate; assay type: in vivo; details: Puccinia recondita, 240 h; read-out: % control WLR
[7] = test system: Phytophthora infestans; experiment: whole plant or invertebrate; assay type: in vivo; details: Phytophthora infestans, in Solanum lycopersicum, 96 h, read-out: % control TLB
[8] = test system: Erysiphe graminis (f. sp. tritici); experiment: whole plant or invertebrate; assay type: in vivo; details: Blumeria graminis; read-out: % control WPM
[9] = test system: E.c; experiment: Minimum Inhibitory Concentration Test, alternate (Table 4), E.c; assay type: cell-based, Escherichia coli; details: Escherichia coli, TSB, 72 hours
Description: as §1, §2

[10] = test system: Pseudoperonospora cubensis; experiment: whole plant or invertebrate; assay type: in vivo; details: Pseudoperonospora cubensis, in Cucumis sativus, 168 h; read-out: % control CDM
[11] = test system: A.p; experiment: Minimum Inhibitory Concentration Test, alternate (Table 4), A.p; assay type: cell-based; details: Aureobasidium pullulans, TSB, 72 hours
Description: as §1, §2

[12] = test system: Pseudomonas fluorescens; experiment: Minimum Inhibitory Concentration Test, alternate (Table 4), Ps.fl; assay type: cell-based; details: Pseudomonas fluorescens, TSB, 72 hours, 30° C
Description: as §1, §2

[13] = test system: A.n; experiment: Minimum Inhibitory Concentration Test, alternate (Table 4), A.n; assay type: cell-based, Aspergillus niger; details: Aspergillus niger, TSB, 72 hours
Description: as §1, §2

Compound | pest or weed control at 100 ppm [1] [%] | MIC [2] [µg/mL] | MIC [3] [µg/mL] | pest or weed control at 100 ppm [4] [%] | MIC [5] [µg/mL] | pest or weed control at 100 ppm [6] [%] | pest or weed control at 100 ppm [7] [%] | pest or weed control at 100 ppm [8] [%] | MIC [9] [µg/mL] | pest or weed control at 100 ppm [10] [%] | MIC [11] [µg/mL] | MIC [12] [µg/mL] | MIC [13] [µg/mL] | pest or weed control at 25 ppm [6] [%] | pest or weed control at 200 ppm [1] [%] | pest or weed control at 200 ppm [4] [%] | pest or weed control at 200 ppm [6] [%] | pest or weed control at 200 ppm [7] [%] | pest or weed control at 200 ppm [8] [%] | pest or weed control at 200 ppm [10] [%]
CCCCCCCCNC(=O)/C=C\SC(C(=O)Nc1ccc(OC)c(Cl)c1)C(=O)OCC (stereo not drawn) [Example 50, N-n-octyl-cis-3-{2-[ethyl-N-(3-chloro-4-methoxyphenyl)malonamido]thio}acrylamide] | 0 | > 250 | > 250 | 0 | 63 to 250 (≈ 130 to 515 µM) | 50 | 0 | 0 | > 250 | 85 | < 2 | > 250 |  |  |  |  |  |  |  | 
CCCCCCCCNC(=O)/C=C\SC(C(=O)Nc1cc([N+](=O)[O-])ccc1Cl)C(=O)OCC (stereo not drawn) [Example 45, N-n-octyl-cis-3-{2-[ethyl-N-(2-chloro-5-nitrophenyl)malonamido]thio}acrylamide] | 0 | > 250 | 63 (≈ 126 µM) | 0 | 4 (≈ 8 µM) |  | 0 | 0 | > 250 |  | < 2 | > 250 | 4 to 8 (≈ 8 to 16 µM) | 50 |  |  |  |  |  | 
CCCCCCCCNC(=O)/C=C\SC(C(=O)Nc1c(C)cccc1Cl)C(=O)OCC (stereo not drawn) [Example 59, N-n-octyl-cis-3-{2-[ethyl-N-(2-chloro-6-methylphenyl)malonamido]thio}acrylamide] | 50 |  |  | 0 |  | 50 | 95 | 0 |  | 99 |  | > 250 | 250 (≈ 533 µM) |  |  |  |  |  |  | 
CCCCCCCCNC(=O)/C=C\SC(C(=O)NCc1ccccc1)C(=O)OCC (stereo not drawn) [Example 20, N-n-octyl-cis-3-[2-(ethyl-N-benzylmalonamido)thio]acrylamide] |  |  |  |  |  |  |  |  |  |  |  | > 500 | > 500 |  | 90 | 0 | 75 | 90 | 0 | 100
CCCCCCCCNC(=O)/C=C\SC(C(=O)Nc1cccc(OC)c1)C(=O)OCC (stereo not drawn) [Example 23, N-n-octyl-cis-3-{2-[ethyl-N-(3-methoxyphenyl)malonamido]thio}acrylamide] |  |  |  |  |  |  |  |  |  |  |  | > 500 | > 500 |  | 50 | 0 | 50 | 100 | 47 | 92
CCCCCCCCNC(=O)/C=C\SC(C(=O)Nc1cc(Cl)cc(Cl)c1)C(=O)OCC (stereo not drawn) [Example 55, N-n-octyl-cis-3-{2-[ethyl-N-(3,5-dichlorophenyl)malonamido]thio}acrylamide] | 95 |  |  | 0 |  | 0 | 80 | 50 |  | 85 |  | > 500 | > 500 |  |  |  |  |  |  | 
CCCCCCCCNC(=O)/C=C\SC(C(=O)NCc1ccccc1Cl)C(=O)OCC (stereo not drawn) [Example 38, N-n-octyl-cis-3-{2-[ethyl-N-(2-chlorobenzyl)malonamido]thio}acrylamide] | 50 |  |  | 0 |  | 0 | 95 | 0 |  | 99 |  | > 500 | 125 to 250 (≈ 266 to 533 µM) |  |  |  |  |  |  | 
CCCCCCCCNC(=O)/C=C\SC(C(C)=O)C(=O)Nc1ccccc1 (stereo not drawn) [Example 31, N-n-octyl-cis-3-[2-(N-phenylacetoacetamido)thio]acrylamide] |  |  |  |  |  |  |  |  |  |  |  | 500 (≈ 1280 µM) | 250 (≈ 640 µM) |  | 95 | 0 | 50 | 95 | 0 | 100
CCCCCCCCNC(=O)/C=C\SC(C(=O)Nc1ccc(Cl)cc1)C(=O)OCC (stereo not drawn) [Example 34, N-n-octyl-cis-3-{2-[ethyl-N-(4-chlorophenyl)malonamido]thio}acrylamide] | 0 |  |  | 0 |  | 50 | 50 | 50 |  | 85 |  | > 500 | > 500 |  |  |  |  |  |  | 
CCCCCCCCCCCCNC(=O)C(S/C=C\C(=O)NCCCCCCCC)C(=O)OCC (stereo not drawn) [Example 24, N-n-octyl-cis-3-[2-(ethyl-N-n-dodecylmalonamido)thio]acrylamide] |  |  |  |  |  |  |  |  |  |  |  | > 500 | 250 (≈ 488 µM) |  | 0 | 0 | 50 | 50 | 0 | 100
CCCCCCCCNC(=O)/C=C\SC(C(=O)Nc1cccc(Cl)c1C)C(=O)OCC (stereo not drawn) [Example 39, N-n-octyl-cis-3-{2-[ethyl-N-(2-methyl-3-chlorophenyl)malonamido]thio}acrylamide] | 50 |  |  | 0 |  | 75 | 100 | 50 |  | 100 |  | > 500 | 500 (≈ 1070 µM) |  |  |  |  |  |  | 
CCCCCCCCNC(=O)/C=C\SC(C(=O)NCc1ccc(OC)cc1)C(=O)OCC (stereo not drawn) [Example 60, N-n-octyl-cis-3-{2-[ethyl-N-(4-methoxybenzyl)malonamido]thio}acrylamide] | 0 |  |  | 0 |  | 0 | 80 | 0 |  | 99 |  | > 250 | > 250 |  |  |  |  |  |  | 
CCCCCCCCNC(=O)/C=C\SC(C(=O)Nc1ncccn1)C(=O)OCC (stereo not drawn) [Example 62, N-n-octyl-cis-3-{2-[ethyl-N-(2-pyrimidinyl)malonamido]thio}acrylamide] | 0 |  |  | 0 |  | 0 | 0 | 0 |  | 85 |  | > 250 | > 250 |  |  |  |  |  |  | 
CCCCCCCCNC(=O)/C=C\SC(C(=O)NCCC)C(=O)NCCC [Example 19, N-n-octyl-cis-3-[2-(N,N'-di-n-propylmalonodiamido)thio]acrylamide] |  |  |  |  |  |  |  |  |  |  |  | > 500 | > 500 |  | 0 | 0 | 62 | 89 | 25 | 95
CCCCCCCCNC(=O)/C=C\SC(C(=O)Nc1ccc(Cl)c(Cl)c1)C(=O)OCC (stereo not drawn) [Example 52, N-n-octyl-cis-3-{2-[ethyl-N-(3,4-dichlorophenyl)malonamido]thio}acrylamide] | 80 |  |  | 0 |  | 0 | 80 | 0 |  | 99 |  | > 500 | > 500 |  |  |  |  |  |  | 
CCCCCCCCNC(=O)/C=C\SC(C(=O)Nc1ccc(OC)cc1)C(=O)OCC (stereo not drawn) [Example 58, N-n-octyl-cis-3-{2-[ethyl-N-(4-methoxyphenyl)malonamido]thio}acrylamide] | 0 |  |  | 0 |  | 0 | 0 | 0 |  | 100 |  | > 500 | 250 (≈ 555 µM) |  |  |  |  |  |  | 
CCCCCCCCNC(=O)/C=C\SC(C(=O)Nc1ccccc1Cl)C(=O)OCC (stereo not drawn) [Example 21, N-n-octyl-cis-3-{2-[ethyl-N-(2-chlorophenyl)malonamido]thio}acrylamide] |  |  |  |  |  |  |  |  |  |  |  | > 500 | 8 (≈ 17.6 µM) |  | 100 | 0 | 75 | 97 | 62 | 97
